US7592326B2, “Method for stimulating the immune, inflammatory or neuroprotective response” (priority 2004, dated 2009)

Tests used:
[1] = tested on: autologous or allogeneic PBMC; assay: Mixed leukocyte reaction with irradiated DCs ([3H]thymidine incorporation); assay type: cell-based, human; details: 100 μM c-di-GMP-treated immature DCs
Procedure: DCs were stimulated for 24 h with c-di-GMP or LPS and were then extensively washed and suspended in RPMI 1640 supplemented with 10% human serum, L-glutamine, and penicillin/streptomicin, irradiated (3,000 rad from a ^137Cs source) and added in graded doses to 1×10^5 responder T cells in 96 flat-bottom microplates. Responder cells were autologous or allogeneic PBMC. After 5 days, cultures were pulsed for 18 h with 0.5 µCi/well of [^3H]thymidine. Cells were then harvested onto glass fiber filters, and [^3H]thymidine incorporation was measured by liquid scintillation spectroscopy.

human DCs = assay: Cytokine, chemokine and chemokine receptor expression in c-di-GMP-induced DC maturation (QPCR); assay type: cell-based
Procedure: Buffy coats were obtained from healthy human volunteers and fractionated over Histopaque-1077. The peripheral blood mononuclear cells (PBMC) layer was recovered and erythrocyte-depleted by incubation in red blood cell lysis buffer for 5 minutes at room temperature. PBMCs were cultured in complete medium (RPMI 1640, 1% L-glutamine, 1% penicillin/streptomycin, and 10% low endotoxin FCS) for 2 hours in T75 flasks (Corning). Following incubation, nonadherent cells were removed by three washes with 1× PBS (Invitrogen, Carlsbad, Calif.). The remaining adherent cells were then cultured in complete medium supplemented with GM-CSF and IL-4 (50 ng/mL each). Human and murine IL-4 and GM-CSF were purchased from Peprotech (Rocky Hill, N.J.). On day 2 and day 4, the DC cultures received an additional dose of GM-CSF and IL-4 (50 ng/mL each). On day 5, non-adherent DC were harvested by gentle pipetting, counted, and plated in fresh medium containing GM-CSF and IL-4 (50 ng/mL each). On Day 6, some DC were matured by addition of 100 ng/ml LPS or 10-400 μM c-di-GMP for 1-24 hours.
Surface expression of various markers was assessed using CellQuest analysis software on a FACScalibur (Becton-Dickinson) flow cytometer. Surface expression was determined using the following FITC- and PE-conjugated antibodies: CD86-FITC (Research Diagnostics), CCR7-PE (R&D Systems), CD80-FITC, CD83-FITC, HLA-DR-FITC (BD Pharmingen). The isotype control antibodies were used accordingly in all experiments and were purchased from Pharmingen. Human DC were incubated in 1% human AB serum/PBS and were incubated with rat anti-CD16/CD32 (BD Phamingen) to block non-specific binding. Total RNA was extracted using the RNeasy kit according to the manufacturer's protocol (Qiagen). Briefly, after DNase I (Invitrogen) treatment, 1 μg of total RNA from each sample was used as template for the reverse transcription reaction. 50 ul of cDNA was synthesized using Oligo(dT)15, random hexamers, and multiscribe reverse transcriptase (Applied Biosystems). All samples were reverse transcribed under the same conditions (25° C. for 10 minutes, 48° C. for 30 minutes) and from the same reverse transcription master mix in order to minimize differences in reverse transcription efficiency. All oligonucleotide primers for QPCR were designed using Primer Express software 1.0 (PE Biosystems) and synthesized by Invitrogen. The 25 ul QPCR reaction contains 2 ul of cDNA, 12.5 ul of 2× SYBR Green master mix (Stratagene), and […] of sense and anti-sense primer. The reaction conditions were as follows: 50° C. for 2 minutes, 95° C. for 10 minutes then 40 cycles of 95° C. for 15 seconds and 60° C. for 1 minute. Emitted fluorescence for each reaction was measured during the annealing/extension phase, and amplification plots were analyzed using the MX4000 software version 3.0 (Stratagene). Quantity values (i.e., copies) for gene expression were generated by comparison of the fluorescence generated by each sample with standard curves of known quantities. Next, the calculated number of copies was divided by the number of copies of the housekeeping gene GAPDH.

S. aureus strain NCH57 = assay: Mouse S. aureus pneumonia (proposed); assay type: in vivo; details: 200 nmol 24- and 48 hours prior; 1×10^9 CFU NCH57
C. albicans = assay: Candidiasis of oral mucosal surfaces and intestinal tract in mice (proposed); assay type: in vivo, Candida albicans; details: C. albicans in drinking water
Source text: Dissemination to livers occurs and is 100% on days 5 to 15. The median kidney or liver CFU were 2 or 3 log10 CFU, respectively, on day 15; despite this, mortality was low through 21 days of infection.

P. carinii = assay type: in vivo, Pneumocystis carinii; details: C57BL/6 mice pretreated 48- and 24 h prior to infection
[2] = pH 10
S. aureus = details: cited from earlier work
Lethality in CD1 mice = details: 50 μl of 200 μM, after 24 h
Murine splenic DCs = assay: Activation of murine splenic DCs; details: 200 uM, 24 h

Nc1nc(=O)c2ncn([C@@H]3OC4COP(=O)(O)O[C@H]5[C@@H](O)[C@H](n6cnc7c(=O)nc(N)[nH]c76)O[C@@H]5COP(=O)(O)OC4C3O)c2[nH]1 (stereo partly drawn) [c-di-GMP, Bis(3′→5′)-cyclic diguanylic acid]
autologous T cell proliferation, increase compared to untreated DCs ([1]; FIG. 4A): five-fold
heterologous T cell proliferation, increase compared to untreated DCs ([1]; FIG. 4B): two-fold
mRNA expression of chemokines IL-8/CXCL8, MIG/CXCL9, IP-10/CXCL10, I-TAC/CXCL11, MCP-1/CCL2, MIP-1a/CCL3, MIP-1b/CCL4, RANTES/CCL5 (human DCs; 200 uM, 1-24 hours): increased
mRNA expression of IFN-a, IL-1b, TNF, IFN-g and IL-12 p40 (human DCs; 200 uM, FIG. 11A): stimulated
IL-8 and IP-10 protein production (ELISA of supernatants) (human DCs; 24 hours, data not shown): consistent with the mRNA results
expression of CXCR4 and CCR7 (human DCs; FIG. 11C): upregulated
expression of chemokine receptors CCR1 and CCR5 (human DCs; FIG. 11C): downregulated
induction of Th2 cytokines (IL-4, IL-5, IL-10, IL-13) (human DCs; human DCs): No evidence for the induction
time of TNF-a peak following treatment (human DCs; returns to basal level after 24 hours): 3 h
survival (S. aureus strain NCH57): greater survival
mucosal infection and dissemination compared to untreated controls (C. albicans): reduce mucosal infection
survival (P. carinii): increased survival
stability at physiological conditions [2]: stable
colonization of the mouse mammary glands by S. aureus (S. aureus; intramammary, at time of challenge and 4 h post-inoculation): significantly decreased
in-vivo dose giving maximal benefit (S. aureus; previously published studies): 200 nmoles/animal
lethality in CD1 mice (Lethality in CD1 mice): non-lethal
surface expression of co-stimulatory molecules CD80 and CD86 (Murine splenic DCs; FIG. 9A): increase
TNF and IL-8 protein in supernatant (Murine splenic DCs; FIGS. 9B and 9C): increase
